In patent US20220110910A1, “CANNABINOID-CONTAINING COMPLEX MIXTURES FOR THE TREATMENT OF CYTOKINE RELEASE SYNDROME WHILE PRESERVING KEY ANTI-VIRAL IMMUNE REACTIONS” (GBS Global BioPharma, Inc., priority 2020, published 2022):

Legend:
Format in all cases: cell-based, human
[1] = tested on: monocytes; test: IL-1β ELISA in supernatants of LPS-stimulated PBMC
Protocol: (§1) In immunological activity experiments, PBMC suspensions were pre-treated with cannabinoid and/or terpene compounds for 30 minutes before treatment with designated stimuli, cultured in 96 well tissue culture plates, and incubated at 37° C. and 5.0% CO2. In pDC experiments, cell suspensions were stimulated with CpG-ODN Type A 2216 (15 μg/mL) (InvivoGen©, San Diego, Calif.) following treatment with cannabinoids. Golgi transport inhibitors Monensin (2 μM)/Brefeldin A (3.0 μg/mL) (Thermo Fisher Scientific, Waltham, Mass.) were added to culture 3 hours post-stimulation, and after 7 hours of stimulation cells were harvested for evaluation by flow cytometry for IFNα and TNFα. In monocyte experiments, cell suspensions were stimulated with 1000 ng/mL LPS (S. typhosa, Sigma Aldrich, St. Louis, Mo.) for 18 hours before harvesting supernatants for IL-1β, Golgi blocked for 6 hours before harvesting cells for assessment of IL-6, or cultured for 48 hours before harvesting cells for assessment of HLA-DR, CD80, and CD86. In phagocytosis experiments, cell suspensions were treated with 3.0 mg/mL of pHrodo Green BioParticles (Thermo Fisher). In T cell experiments, cells were plated on 96 well tissue culture plates pre-coated with 5.0 μg/mL anti-CD3 (clone UCHT1, Biolegend, San Diego, Calif.) and stimulated with 5.0 μg/mL anti-CD28 (clone 28.2, Biolegend) and supplemented with 5.0 ng/mL IL-2 (Roche Applied Science, Indianapolis, Ind.). CD25 and CD69 were assessed by flow cytometry 24 hours post-stimulation. In proliferation experiments, cell suspensions were incubated with CFSE Cell Division Tracker (Biolegend) according to manufacturer protocols, harvested 4 days post-stimulation and assessed by flow cytometry. Cell suspensions were further stimulated with 50 ng/mL phorbol 12-myristate 13-acetate (PMA) and 1000 ng/mL ionomycin (Io) at 4 days post-stimulation for 18 hours, Golgi blocked for 6 hours, and harvested for IL-4 and IFNγ assessment by flow cytometry.
To quantify IL-1β produced by monocytes, supernatants were collected from LPS stimulated cell suspensions after 18 hours and frozen at −80° C. ELISA MAX from Biolegend was used as per manufacturer protocol to quantify IL-1β to a sensitivity of […].

[2] = tested on: PBMC; test: Immune modulation survey of single compounds (all functional responses); conditions: 0.001-10 μM
Protocol: In immunological activity experiments, PBMC suspensions were pre-treated with cannabinoid and/or terpene compounds for 30 minutes before treatment with designated stimuli, cultured in 96 well tissue culture plates, and incubated at 37° C. and 5.0% CO2. In pDC experiments, cell suspensions were stimulated with CpG-ODN Type A 2216 (15 μg/mL) (InvivoGen©, San Diego, Calif.) following treatment with cannabinoids. Golgi transport inhibitors Monensin (2 μM)/Brefeldin A (3.0 μg/mL) (Thermo Fisher Scientific, Waltham, Mass.) were added to culture 3 hours post-stimulation, and after 7 hours of stimulation cells were harvested for evaluation by flow cytometry for IFNα and TNFα. […] CD25 and CD69 were assessed by flow cytometry 24 hours post-stimulation. In proliferation experiments, cell suspensions were incubated with CFSE Cell Division Tracker (Biolegend) according to manufacturer protocols, harvested 4 days post-stimulation and assessed by flow cytometry. […]
In brief, pDC, monocyte and T cell were identified using antibodies directed against unique epitopes for each cell type and analyzed by flow cytometry. […] For intracellular staining, fixed cells were permeabilized in BD Permwash and incubated with appropriate antibodies and 7% human AB serum. pDC were identified as CD303+and assessed for intracellular IFNα and TNFα. […]

[3] = tested on: CD4+ T cells; test: Intracellular IFNγ and IL-4 after anti-CD3/anti-CD28 stimulation and PMA/ionomycin; conditions: 0.001 μM; vs vehicle
Protocol: as §1
(§2) In brief, pDC, monocyte and T cell were identified using antibodies directed against unique epitopes for each cell type and analyzed by flow cytometry. Cells were fixed in BD CytoFix and resuspended in FACS buffer for extracellular staining. […] For intracellular staining, fixed cells were permeabilized in BD Permwash and incubated with appropriate antibodies and 7% human AB serum. pDC were identified as CD303+and assessed for intracellular IFNα and TNFα. Monocytes were identified as CD14+ and assessed for extracellular HLA-DR, CD80, CD86, and intracellular TNFα and IL-6. […] T cells were identified as CD3+ and T cell subsets identified by CD4+ and CD8+ and assessed for extracellular CD25 and CD69 and intracellular IFNγ and IL-4. […]

[4] = tested on: CD8+ T cells; test: Intracellular IFNγ after anti-CD3/anti-CD28 stimulation and PMA/ionomycin; conditions: 0.001 μM; vs vehicle
Protocol: as §1, §2

[5] = tested on: monocytes; test: Co-stimulatory markers HLA-DR, CD80, CD86 on monocytes after LPS; conditions: 2 days
Protocol: as §1
(§3) In brief, pDC, monocyte and T cell were identified using antibodies directed against unique epitopes for each cell type and analyzed by flow cytometry. Cells were fixed in BD CytoFix and resuspended in FACS buffer for extracellular staining. To determine the changes in cell viability in mixed PBMC, gates were first set on singlet events, then CD45+ cells, then populations identified by CD3+ (T cells) and CD14+ (monocytes), and then 7-AAD- for viability. Likewise, for pDC viability experiments, pDC were identified as CD303+ and viable by exclusion of Near IR L/D stain (Life Technologies, Carlsbad, Calif.). For intracellular staining, fixed cells were permeabilized in BD Permwash and incubated with appropriate antibodies and 7% human AB serum. pDC were identified as CD303+and assessed for intracellular IFNα and TNFα. Monocytes were identified as CD14+ and assessed for extracellular HLA-DR, CD80, CD86, and intracellular TNFα and IL-6. In phagocytosis experiments, PBMC were identified as CD45+ and monocytes were identified based on side scatter and then phagocytosing monocytes. T cells were identified as CD3+ and T cell subsets identified by CD4+ and CD8+ and assessed for extracellular CD25 and CD69 and intracellular IFNγ and IL-4. To analyze T cell proliferation, FlowJo 10.0 proliferation tool was used by setting the undivided peak of CFSE stained cells in each sample.

[6] = tested on: plasmacytoid dendritic cells (pDC); test: IFNα and TNFα in pDC of PBMC stimulated with CpG-ODN (intracellular staining); conditions: vs vehicle; for IFNα production by pDC: 0.01, 0.1, and 1.0 μM
Protocol: as §1, §3

[7] = tested on: monocytes; test: TNFα+ monocytes after CpG-ODN stimulation (intracellular staining); conditions: 10 μM; CpG-ODN 15 μg/mL, 6 hours; vs vehicle
Protocol: FIGS. 9A-9B reveal the TNFα decreasing potential of cannabinol (CBN). […] PBMC were isolated from human peripheral blood and pre-treated with the indicated concentrations of cannabinol for 30 minutes, followed by stimulation with 15 μg/mL CpG-ODN for 6 hours (FIG. 9A). Cells were non-enzymatically released from culture plates and assessed for the percentage of TNFα+ monocytes (FIG. 9A) by intracellular staining. For FIG. 9B, PBMC were isolated from human peripheral blood and pre-treated with the indicated concentrations of cannabinol for 30 minutes, followed by treatment with 3.0 mg/mL of pHrodo Green BioParticles (FIG. 9B). In FIG. 9B, cells were treated with 3.0 mg/mL of pHrodo Green BioParticles and assessed for phagocytosis monocytes by flow cytometry within 2 hours. Data are normalized to each donor's vehicle control when appropriate and presented as mean±SEM. N=4-6 donors per treatment group. […] *p<0.05 when compared to VH (FIG. 9A), or **p<0.01 when compared to VH (FIG. 9B), by repeated measure one-way ANOVA with Dunnett's posttest.
as §2

[8] = tested on: CD4+ T cells; test: T cell proliferation (CFSE, FlowJo Proliferation tool); conditions: 0.01 μM
Protocol: as §1, §2

[9] = tested on: CD8+ T cells; test: as above; conditions: 0.01 μM
Protocol: as §1, §2

[10] = tested on: CD4+ T cells; test: T cell activation markers CD25 and CD69, 24 hours post-stimulation; conditions: concentration not given
Protocol: as §1, with “In T cell experiments, cells were plated on 96 well tissue culture plates pre-coated with 5.0 μg/mL anti-CD3 (clone UCHT1, Biolegend, San Diego, Calif.) and stimulated with 5.0 μg/mL anti-CD28 (clone 28.2, Biolegend) and supplemented with 5.0 ng/mL IL-2 (Roche Applied Science, Indianapolis, Ind.).” left out, “Cell suspensions were further stimulated with 50 ng/mL phorbol 12-myristate 13-acetate (PMA) and 1000 ng/mL ionomycin (Io) at 4 days post-stimulation for 18 hours, Golgi blocked for 6 hours, and harvested for IL-4 and IFNγ assessment by flow cytometry.” left out
as §2, with “cytometry.” for “cytometry. Cells were fixed in BD CytoFix and resuspended in FACS buffer for extracellular staining.”

[11] = indicated concentrations (0.001-10 μM)

C=CC(C)(O)CCC=C(C)C (centres unmarked) [Linalool]
IL-1β secretion in monocytes ([1]; 0.001 μM, LPS 1000 ng/mL, vs vehicle): significantly increased
IL-1β production ([1]; any other concentration (tested 0.001-10 μM, other than 0.001 μM)): did not exhibit any effects
any other immunological functional responses measured in the immune modulation survey [2]: did not have any statistically significant effects

C/C(=C\CO)CCC[C@H](C)CCC[C@H](C)CCCC(C)C [Phytol A, phytol]
IFNγ in CD4+ T cells [3]: significantly decreased
IFNγ in CD8+ T cells [4]: not statistically significant

CCCCCc1cc(O)c2c(c1)OC(C)(C)[C@@H]1CCC(C)=C[C@@H]21 [THC, (6aR,10aR)-delta-9-tetrahydrocannabinol, reference compound]
IL-1β in monocytes ([1]; 10 μM, LPS 1000 ng/mL, vs vehicle): significantly decreased
CD80+ co-stimulatory marker in monocytes ([5]; 10 μM, vs vehicle): significantly decreased
CD86+ co-stimulatory marker in monocytes [5, 11]: did not cause a statistically significant change
HLA-DR+ co-stimulatory marker in monocytes [5, 11]: did not cause a statistically significant change
IFNα in plasmacytoid dendritic cells (pDC) ([6]; 10 μM, CpG-ODN 15 μg/mL): significantly decreased
TNFα in plasmacytoid dendritic cells (pDC) ([6]; 10 μM, CpG-ODN 15 μg/mL): significantly decreased
TNFα in monocytes [7]: significantly decreased
proliferation of CD4+ T cells [8]: significantly increased
proliferation of CD8+ T cells [9]: significantly increased

C=CC(C)(O)CC/C=C(\C)CCC=C(C)C (stereo not drawn) [trans-nerolidol, trans nerolidol]
IL-1β in monocytes ([1]; 0.01 μM, LPS 1000 ng/mL, vs vehicle): enhanced
IL-1β in monocytes ([1]; 0.01 μM, LPS 1000 ng/mL, vs vehicle, listed as tN): significantly increased
% CD25+ in CD4+ T cells (activation marker) [10]: increased

CC1=CCC2CC1C2(C)C (stereo not drawn) [α-Pinene, α-pinene]
IFNα production by pDC ([6]; CpG-ODN): significantly suppressed
IFNα production by pDC ([6]; CpG-ODN, listed as Alpha-Pinene): significantly decreased
TNFα production by pDC ([6]; 0.1 and 1.0 μM, CpG-ODN): significantly suppressed
